These results are taken from ChEMBL document CHEMBL5523715, “Inhibitory interactions of the 2,3-dihydro-6,7-dihydroxy-1H-isoindol-1-one scaffold with Bunyavirales cap-snatching endonucleases expose relevant drug design features” (Eur J Med Chem, 2024).

Test [1] has as its target RNA-directed RNA polymerase L (Bunyavirus La Crosse) (UniProt A5HC98). Conditions: La Crosse virus; dose 25.0 µM.
The target in test [2] is RNA-directed RNA polymerase L (Bunyavirus La Crosse, UniProt A5HC98). Set-up: species or system La Crosse virus.
For test [3], the target named is RNA-directed RNA polymerase L (Andes orthohantavirus, UniProt Q9E005). Also noted: species or system Orthohantavirus andesense.
Test [4] concerns Mammarenavirus choriomeningitidis. The test is described as follows: Thermal stabilization of LCMV cap-ENDO assessed as increase in melting temperature at 25 uM in presence of MnCl2 by Sypro Orange dye based assay.
Another test concerns Mammarenavirus lassaense. The test is described as follows: Thermal stabilization of LASV cap-ENDO assessed as increase in melting temperature at 25 uM in presence of MnCl2 by Sypro Orange dye based assay.
Test [5] deals with RNA-directed RNA polymerase L (Toscana virus) (UniProt P37800). Conditions: dose 25.0 µM.
Test [6] concerns the target T1, RNA-directed RNA polymerase L (Toscana virus, UniProt P37800).
The target in test [7] is RNA-directed RNA polymerase L (Andes orthohantavirus) (UniProt Q9E005). Conditions: Orthohantavirus andesense; dose 25.0 µM.
Another test concerns Pichinde virus. Briefly: Thermal stabilization of PICV cap-ENDO assessed as increase in melting temperature at 25 uM in presence of MnCl2 by Sypro Orange dye based assay.
Test [8] in a line: Metal chelating activity assessed as compound-Mn(II) complex formation by measuring apparent formation constant (K) by UV-Vis spectrophotometric analysis. Format: functional.
Test [9] can be described thus: Metal chelating activity assessed as compound-Mg(II) complex formation by measuring apparent formation constant (K) by UV-Vis spectrophotometric analysis. It counts as functional.
Test [10] addresses T1, RNA-directed RNA polymerase L. The source holds these as a separate data set.
For test [11], the target named is RNA-directed RNA polymerase L (Toscana virus) (UniProt P37800).
Test [12] has the same target. The source holds these as a separate data set.
Test [13] has the same target. This is another data set of the same source.

Structures are written as SMILES. The source made the active and inactive calls. No cut-off for these calls is given here.

T1 sequence (P37800 whole entry): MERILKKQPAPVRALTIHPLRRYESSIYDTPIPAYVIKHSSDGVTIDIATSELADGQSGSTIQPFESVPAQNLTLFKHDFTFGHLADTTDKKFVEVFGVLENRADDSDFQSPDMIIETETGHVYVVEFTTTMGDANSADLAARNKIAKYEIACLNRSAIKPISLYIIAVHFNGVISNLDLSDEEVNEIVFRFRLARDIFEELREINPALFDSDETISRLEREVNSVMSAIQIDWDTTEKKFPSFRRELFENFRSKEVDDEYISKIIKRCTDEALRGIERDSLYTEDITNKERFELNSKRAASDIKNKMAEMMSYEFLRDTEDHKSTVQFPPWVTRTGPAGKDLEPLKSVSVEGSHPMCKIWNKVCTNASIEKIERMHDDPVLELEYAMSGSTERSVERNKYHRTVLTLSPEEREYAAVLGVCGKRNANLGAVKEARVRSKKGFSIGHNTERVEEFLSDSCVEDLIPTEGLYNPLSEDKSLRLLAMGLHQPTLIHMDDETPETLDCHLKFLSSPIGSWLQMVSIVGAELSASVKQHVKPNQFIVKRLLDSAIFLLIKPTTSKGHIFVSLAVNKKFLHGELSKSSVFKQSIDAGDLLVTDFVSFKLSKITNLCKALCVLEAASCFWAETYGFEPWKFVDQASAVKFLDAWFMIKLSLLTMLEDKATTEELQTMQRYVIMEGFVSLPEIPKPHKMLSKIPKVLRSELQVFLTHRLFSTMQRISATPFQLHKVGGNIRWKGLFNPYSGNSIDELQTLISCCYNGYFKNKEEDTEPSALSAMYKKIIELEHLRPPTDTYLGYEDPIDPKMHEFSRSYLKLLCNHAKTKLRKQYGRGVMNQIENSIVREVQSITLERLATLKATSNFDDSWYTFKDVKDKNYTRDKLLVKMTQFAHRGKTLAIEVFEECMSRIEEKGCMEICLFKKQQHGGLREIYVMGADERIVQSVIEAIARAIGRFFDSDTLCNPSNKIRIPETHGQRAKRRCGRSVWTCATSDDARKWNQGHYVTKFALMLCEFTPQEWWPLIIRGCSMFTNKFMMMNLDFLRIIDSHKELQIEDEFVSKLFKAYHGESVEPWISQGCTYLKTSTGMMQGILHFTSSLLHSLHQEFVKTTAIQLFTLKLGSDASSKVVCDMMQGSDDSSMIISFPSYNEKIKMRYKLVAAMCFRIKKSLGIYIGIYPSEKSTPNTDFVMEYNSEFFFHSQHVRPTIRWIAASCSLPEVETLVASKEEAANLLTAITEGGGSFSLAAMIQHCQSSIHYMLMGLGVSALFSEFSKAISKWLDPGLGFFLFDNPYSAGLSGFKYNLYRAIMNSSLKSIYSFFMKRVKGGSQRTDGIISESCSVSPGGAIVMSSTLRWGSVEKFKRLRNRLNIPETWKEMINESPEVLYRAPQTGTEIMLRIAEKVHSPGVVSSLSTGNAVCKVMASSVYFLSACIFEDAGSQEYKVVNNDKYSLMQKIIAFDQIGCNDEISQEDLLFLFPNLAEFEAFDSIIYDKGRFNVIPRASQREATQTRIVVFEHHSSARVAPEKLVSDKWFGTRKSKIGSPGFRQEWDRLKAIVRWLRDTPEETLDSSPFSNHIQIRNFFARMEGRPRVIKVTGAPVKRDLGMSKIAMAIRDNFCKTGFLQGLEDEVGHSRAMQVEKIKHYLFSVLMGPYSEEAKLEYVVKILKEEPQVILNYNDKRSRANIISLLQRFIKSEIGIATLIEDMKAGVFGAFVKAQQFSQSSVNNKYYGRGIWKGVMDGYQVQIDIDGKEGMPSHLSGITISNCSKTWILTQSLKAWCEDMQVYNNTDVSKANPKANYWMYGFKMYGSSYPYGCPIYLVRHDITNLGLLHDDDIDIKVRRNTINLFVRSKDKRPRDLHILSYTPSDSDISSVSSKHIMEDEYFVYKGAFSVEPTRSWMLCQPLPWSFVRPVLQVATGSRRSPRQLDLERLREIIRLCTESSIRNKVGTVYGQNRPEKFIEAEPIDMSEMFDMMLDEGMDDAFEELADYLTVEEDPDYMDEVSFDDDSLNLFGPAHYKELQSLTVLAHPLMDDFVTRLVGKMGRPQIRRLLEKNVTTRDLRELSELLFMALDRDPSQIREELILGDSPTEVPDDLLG
Sequence of RNA-directed RNA polymerase L (Toscana virus) (P37800 whole entry): as above

As to `O=C1c2c(ccc(O)c2O)CN1Cc1ccc(Cl)c(C(F)(F)F)c1`, the result (in test [1]; in [4]; in the test on Mammarenavirus lassaense; in [5]; in test [7]; in the test with Pichinde virus) was Active. Further, the half-inhibitory concentration (IC50) in test [2] worked out at 29.2 µM; in test [3], 1.3 µM; in test [6], 7.3 µM.

Take `O=C1c2c(ccc(O)c2O)CN1Cc1ccc(F)cc1`: the result (in test [1]; in test [4]; in the test with Mammarenavirus lassaense; in [5]; in [7]; in the test on Pichinde virus) was Active. Moreover, the half-maximal inhibitory concentration (IC50) in test [2] was 4 µM; in [3], 1.7 µM; in test [6] it was 5.7 µM.

For the molecule `Cc1ccc(CN2Cc3ccc(O)c(O)c3C2=O)cc1`, the outcome (in [1]; in test [4]; in the test on Mammarenavirus lassaense; in test [5]; in [7]; in the test on Pichinde virus) was Active. The half-inhibitory concentration (IC50) in test [2] was determined as 3.4 µM; in test [3], 6.4 µM; in [6] it was 1.5 µM.

In the case of `O=C1c2c(ccc(O)c2O)CN1Cc1ccc(F)c(Cl)c1`, the outcome (in [1]; in [4]; in the test with Mammarenavirus lassaense; in test [5]; in test [7]; with Pichinde virus) was inactive. Also, the values for the IC50 in [2], in test [3] and in test [6] were 4.8 µM, 7.6 µM and 13.4 µM, respectively.

With `O=C1c2c(ccc(O)c2O)CN1Cc1ccccc1`, the outcome (in [1]; in test [4]; in the test with Mammarenavirus lassaense; in test [5]; in [7]; in the test on Pichinde virus) was inactive. For the same molecule, the figures for the IC50 in test [2], in test [3] and in test [6] were 9 µM, 1.1 µM and 3.3 µM, respectively.

Regarding `O=C1c2c(ccc(O)c2O)CN1Cc1ccc2ccccc2c1`, the result (in test [1]; in test [4]; with Mammarenavirus lassaense; in [5]; in [7]; with Pichinde virus) was Active. In addition, the IC50 worked out at 3.9 µM in [2], 1.9 µM in test [3] and 5.8 µM in test [6].

Consider `O=C1c2c(ccc(O)c2O)CN1Cc1ccc(O)cc1`, for which the log(activity) in test [8] is 3.37; in test [9], 2.31. Also, the result (in test [1]; in [4]; in the test with Mammarenavirus lassaense; in test [5]; in test [7]; in the test on Pichinde virus) was Active. The IC50 in test [2] was found to be 0.7 µM; in test [3], 1.6 µM; in [6], 3.6 µM.

Consider `O=C1c2c(ccc(O)c2O)CN1Cc1ccc([N+](=O)[O-])cc1`, for which the outcome (in test [1]; in test [4]; in the test on Mammarenavirus lassaense; in [5]; in test [7]; in the test on Pichinde virus) was Active. Moreover, the half-maximal inhibitory concentration (IC50) in test [2] is 8 µM; in test [3], 3.7 µM; in [6], 4.7 µM.

`O=C1c2c(ccc(O)c2O)CN1Cc1ccc(O)c(O)c1` yielded a Kd in [10] of 28 µM. Also, the deltaH in [11] is -7.97 kcal/mol. The ΔTm in test [1] is over 1 °C; in test [4], under 1 °C; in the test with Mammarenavirus lassaense it was under 1 °C; in [5], over 1 °C; in [7], over 1 °C; in the test on Pichinde virus, under 1 °C. The half-maximal inhibitory concentration (IC50) amounted to 4 µM in test [2], 0.5 µM in test [3] and 2.4 µM in [6]. Besides, the -TdeltaS in [12] was 1.76 kcal/mol. For the same molecule, the deltaG in test [13] is -6.22 kcal/mol.

With `O=C1c2c(ccc(O)c2O)CN1CCc1ccc(O)cc1`, the result (in test [1]; in test [4]; in the test with Mammarenavirus lassaense; in [5]; in test [7]; in the test with Pichinde virus) was Active. Moreover, the figures for the half-maximal inhibitory concentration (IC50) in test [2], in test [3] and in test [6] were 6.1 µM, 1 µM and 2.8 µM, respectively.

On to `O=C1c2c(ccc(O)c2O)CN1Cc1cc(O)c(O)c(O)c1`, for which the result (in [1]; in test [4]; in the test with Mammarenavirus lassaense; in test [5]; in test [7]; in the test on Pichinde virus) was Active. The results for the half-maximal inhibitory concentration (IC50) in [2], in test [3] and in [6] were 1.1 µM, 1.5 µM and 0.9 µM, respectively.

With `O=C1c2c(ccc(O)c2O)CN1Cc1cccc2ccccc12`, the outcome (in test [1]; in [4]; in the test on Mammarenavirus lassaense; in test [5]; in test [7]; with Pichinde virus) was Active. Further, the values for the IC50 in [2], in test [3] and in test [6] were 11.2 µM, 3.8 µM and 7.8 µM, respectively.
